Measured values from patent US6803233B2, “Model for Alzheimer's disease and other neurodegenerative diseases” (priority 2000, dated 2004).
Several values for one entry are separate records, joined by “and”; a condition that tells them apart may be missing. Equal values may be shown once. Entries after “also recorded” stand apart in the source; their conditions may differ.

How the values were obtained:
[1] = tested on: IL-10; assay: RT-PCR/northern blot of cytokine mRNA in cultured hippocampal slices; format: cell-based; conditions: ZPAD 20 μM, mevastatin 20 μM
[2] = tested on: TGF-beta; assay: as above; format: cell-based; conditions: ZPAD 20 μM, mevastatin 20 μM
[3] = tested on: tau protein; conditions: literature report; cited from earlier work
[4] = tested on: tangle-like structures; assay: AT8 immunostaining of cultured rat hippocampal slices; format: cell-based; conditions: rat hippocampal slices; agent applied for 6 days
Experimental: Cultured slices were stained with anti-phosphorylated tau antibody AT8.
(§1) Cultures of hippocampal slices were prepared from 10-12 days old rats.
Cultured rat hippocampal slices of 12 days in vitro were treated with 20 μM pravastatin for 6 days and processed from immunohistological studies with the monoclonal antibody AT8. The subiculum, CA1 field, and CA3 field of the hippocampus were examined by photomicroscopy.

[5] = tested on: p35; assay: Immunoblot of p35/p25 in cultured rat hippocampal slices; format: cell-based; conditions: hippocampal slices
Experimental: Hippocampal slices were collected, homogenized, and subjected to SDS-PAGE electrophoresis. Immunoblots were then probed with anti-p35 sera that were raised against the C-terminal domain of p35.
as §1

[6] = tested on: cathepsin D; assay: Immunoblot of cathepsin D isoforms in cultured mouse hippocampal slices; format: cell-based; conditions: 20 μM ZPAD, 6 days
[7] = tested on: tangle-like structures; assay: AT8 immunocytochemistry of cultured mouse hippocampal slices; format: cell-based; conditions: ZPAD 6 days; for number of AT8 immunopositive profiles: 0.3 mm^2 box at CA1/subicular border, mean±s.e.m., n=5
Experimental: Hippocampal slices were prepared from 10 to 13 day old C57BL/6J (wild-type) and C57BL/6J-ApoE^tm1Unc (ApoE-knockout) mice obtained from the Jackson laboratory, Bar Harbor, Me. Pups were placed under light bromo-chloro-trifluoroethane anesthesia (Sigma, St. Louis, Mo.), and killed by decapitation. After removing the brains, the hippocampus was dissected and subsequently placed on a McIlwain tissue chopper where slices (400 μm thick) were obtained and placed in a solution of cutting medium consisting of Minimum Essential Medium (MEM) with Earle's salts (Gibco, Grand Island, N.Y.), 25 mM HEPES buffer, 10 mM Tris base, 10 mM glucose, and 3 mM MgCl2, pH 7.20. Hippocampal slices were then placed onto the membranes of Millicell-CM culture inserts (Millipore Corp., Bedford, Mass.) in 6 well culture cluster plates and 1 ml of media per well using the methods described by Stoppini et al., J. Neurosci. Methods 37(2):173-82 (1991). The culture medium was described previously by Bednarski et al., J. Neurosci. 17(11):4006-21 (1997). The cultures were incubated in a 37° C. atmosphere containing 5% CO2 and the culture medium was replaced every other day until the initiation of experiments. Each culture cluster plate contained hippocampal slices from either two wild-type or two apoE-knockout mice and individual wells were used for matched control and experimental treatment groups.
After maintaining the slices with normal culture medium (Bednarski et al., J. Neurosci. 17(11):4006-21 (1997)) in vitro for 12-14 days, slices were incubated with culture medium containing either 20 μM N-CBZ-L-phenylalanyl-L-alanine-diazomethyl-ketone (ZPAD; BACHEM Bioscience, Inc., Torrance, Calif.), an inhibitor of cathepsins B and L (Shaw & Dean, Biochem. J. 186:385-390 (1980); Green & Shaw, J Biol Chem. 256:1923-1928 (1981); Richardson et al., J. Cell Biol. 107: 2097-2107 (1988)) or vehicle (dimethylsulfoxide; DMSO, 0.01%-0.04%) for six days. This treatment media was exchanged every other day.
For immunocytochemical staining, control and ZPAD-treated slices from both wild-type and apoE-deficient mice were fixed in 4% paraformaldehyde in 0.1 M phosphate buffer (“PB”) at 4° C. overnight, rinsed once in a solution of phosphate buffered saline PBS (PB: phosphate buffer: 0.1M Na2HPO4 and NaH2PO4; PBS: phosphate buffered saline: NaCl 8 g, KCl 0.2 g, Na2HPO4 1.44 g, KH2PO4 0.24 g, dissolved in 1 liter distilled water, pH 7.4) cryoprotected in 20% sucrose in 0.1 M PB, sectioned on a freezing microtome at 25 μm parallel to the broad upper surface of the explant and mounted onto sterile Fisher Superfrost/Plus slides. […]

[8] = apoE-knockout mouse slices, relative to yoked knockout controls
[9] = wild-type mouse slices, relative to controls, mean±s.e.m.

N-CBZ-L-phenylalanyl-L-alanine-diazomethyl-ketone [ZPAD]
mRNA levels of IL-10 [1]: increases | mRNA levels of TGF-beta [2]: increases | 29 kDa tau fragment (tau 29) [3]: production of a 29-kDa tau fragment; also recorded: delayed appearance of a 29 kDa fragment | high molecular weight isoforms of tau protein [3]: degradation of high molecular weight isoforms of tau protein | induction of AT8-immunoreactive tangle-like structures [4]: only a small number; also recorded: moderately increased; also recorded: induced numerous tangles | levels of p35 ([5]; 6 days): significant decrease | truncated form p25 ([5]; six day treatment): paralleled increase | increase in cathepsin D heavy chain (~38 kDa) ([6]; apoE-knockout mouse slices, relative to control values): 84±26% and 84+26% | increase in cathepsin D proenzyme (~55 kDa) [6, 8]: 145±43% and 145+43% | increase in cathepsin D single chain (~50 kDa) [6, 8]: 150±29% and 150+29% | increase in cathepsin D heavy chain (~38 kDa) [6, 9]: 3.0±5.7% and 3.0+5.7% | increase in cathepsin D single chain form (~50 kDa) [6, 9]: 42±22% and 42+22% | increase in cathepsin D proenzyme (~55 kDa) ([6]; wild-type mouse slices, relative to yoked controls, mean±s.e.m., n=9): 65±29% and 65+29% | AT8-immunoreactive tangle-like structures ([7]; apoE-knockout mouse slices): present in large numbers; also recorded: significantly increased; also recorded: more than double; also recorded: Numerous, densely stained neurons; also recorded: Numerous immunopositive neurons; also recorded: numerous, densely labeled cells | number of AT8 immunopositive profiles ([7]; apoE-knockout slices): 193.8±15 | AT8-immunoreactive tangle-like structures ([7]; wild-type mouse slices): occasionally found; also recorded: far fewer AT8-ir structures | number of AT8 immunopositive profiles ([7]; wild-type slices): 112.6±13
